Here are results for 2 compounds from US20200138890A1, “PHARMACEUTICAL COMPOSITION FOR PREVENTION AND TREATMENT OF PROSTATIC HYPERPLASIA AND ERECTILE DYSFUNCTION CAUSED BY ANDROPAUSE COMPRISING EXTRACT OF LESPEDEZA CUNEATA AND TRIGONELLAE SEMEN” (DUHANBIO CO., LTD., priority 2017, published 2020).

Each structure is given as a SMILES string. Where a name gives a salt, the structure may show the parent alone.

Experiment [1] has as its system male SD rats with prostate gland hypertrophy induced by testosterone. The experiment can be described thus: Inhibition of prostatic hyperplasia in vivo (testosterone-induced prostate gland hypertrophy, prostate weight). The following applies: testosterone 3 mg/kg/day s.c.; Examples 50 mg/kg oral, finasteride 2 mg/kg oral, 3 weeks.
Text: At this time, finasteride was used as the positive control group.
On the day of the last administration, the animals were weighed and then sacrificed, and blood was collected and the prostate glands were excised.
In experiment [2] the test system is male SPF New Zealand albino rabbits. In words: Erectile promoting effect in vivo (erection start time and duration). The following applies: oral, Examples 50 mg/kg, sildenafil citrate 20 mg/kg. Also noted: species or system rabbit. On the procedure: Based on the above results, the effects on erectile promotion of the compositions of Examples 6 to 9 of the present invention in vivo were measured. At this time, sildenafil citrate was used as a positive control group. Specifically, as experimental animals, six male SPF New Zealand albino rabbits (about 3.5 to 4.0 kg body weight, Samtako, Korea) per test group were used, and these rabbits were placed in cages and fed a constant amount of conventional solid feed for rabbits and water under the same condition for 4 days or more. The rabbit was fasted for 48 hours or more and then used for the test. When fasting, the rabbits were allowed to drink water freely. To the rabbit prepared as described above, the compositions of Examples 6 to 9 of the present invention were orally administered at a dose of 50 mg/kg per animal. Meanwhile, sildenafil citrate, a positive control group, was orally administered at a dose of 20 mg/kg. After administration as described above, the erection start time and duration were measured.

Setting [3] is: listed as positive control group.

For the compound `CC(C)(C)NC(=O)[C@H]1CC[C@H]2[C@@H]3CC[C@H]4NC(=O)C=C[C@]4(C)[C@H]3CC[C@]12C` [Finasteride, finasteride], in experiment [1], the Prostate gland weight turned out to be 0.92 ± 0.11 g and the “Prostate gland/body weight (%)” value is 0.24 ± 0.02%.

Consider `CCCc1nn(C)c2c(=O)[nH]c(-c3cc(S(=O)(=O)N4CCN(C)CC4)ccc3OCC)nc12` [sildenafil citrate], for which, in experiment [2] (listed as Control group), the Erection maintenance time came out at 120 ± 5 min, the Erection start time came out at 6.2 ± 1.1 min and the “Maximum Erection time” value worked out at 19 ± 1 min. Further, in experiment [2] (setting [3]), the Erection maintenance time was 120 min, the Erection start time entry is on record as “about 6 Min” and the “Maximum Erection time” value is reported as “about 19 Min”.
